In patent US20260174778A1, “SULFONAMIDE COMPOUND, AND PREPARATION METHOD THEREFOR AND USE THEREOF” (SHANGHAI HENLIUS BIOTECH, INC., priority 2023, published 2026) one finds IC50 data, which are given here for five molecules.

The test system of this experiment is breast cancer cell line ZR-75-1. Kind of experiment: Inhibition of proliferation of breast cancer cell line ZR-75-1 (CellTiter-Glo). The settings on record: Homo sapiens, 240 h, proliferation of ZR-75-1 cells, 10 days of incubation, read-out: IC50 (KAT6A). The experiment is classed as cell-based. A general note: ATP-based viability assays read luminescence as a measure of living cells.

The structures appear in SMILES notation.

Usually IC50 stands for the concentration that inhibits the measured activity by half. On to `COc1ccc2c(c1S(=O)(=O)Nc1noc3cc(Cn4cccn4)c(F)c(OC)c13)OCC=C2` [Compound 101, N-(6-((1H-Pyrazol-1-yl)methyl)-5-fluoro-4-methoxybenzo[d]isoxazol-3-yl)-7-methoxy-2H-chromene-8-sulfonamide], for which the IC50 is less than 500 pM. To `COc1ccc2c(c1S(=O)(=O)Nc1noc3cc(Cn4cccn4)c(F)c(OC)c13)OCCN2C` [Compound 109, N-(6-((1H-Pyrazol-1-yl)methyl)-5-fluoro-4-methoxybenzo[d]isoxazol-3-yl)-7-methoxy-4-methyl-3,4-dihydro-2H-benzo[b][1,4]oxazine-8-sulfonamide] belongs less than 500 pM; to `COc1ccc2c(c1S(=O)(=O)Nc1noc3cc(Cn4cccn4)c(F)c(OC)c13)OCCC2=O` [Compound 42, N-(6-((1H-Pyrazol-1-yl)methyl)-5-fluoro-4-methoxybenzo[d]isoxazol-3-yl)-7-methoxy-4-oxochromane-8-sulfonamide], less than 500 pM. For `COc1ccccc1S(=O)(=O)Nc1noc2cc(Cn3cccn3)cc(OC)c12` [PF-8144, reference compound], the IC50 is 500 to 2000 pM.

For the molecule `COc1ccc2c(c1S(=O)(=O)Nc1noc3cc(Cn4cccn4)c(F)c(OC)c13)OCCO2` [Compound 28, N-(6-((1H-Pyrazol-1-yl)methyl)-5-fluoro-4-methoxybenzo[d]isoxazol-3-yl)-6-methoxy-2,3-dihydrobenzo[b][1,4]dioxine-5-sulfonamide], the IC50 is less than 500 pM.
